Data published in US10669242B2 (priority 2016, dated 2020).
pIC50: −log10 of the molar value.

molecular target: T1, recombinant glucosyltransferase domain of C. difficile Toxin B/TcdB (Clostridioides difficile, UniProt P18177); experiment: biochemical
T1 construct: 6-His (C); purchased R&D Systems 6246-GT
T1 sequence (P18177 1-543): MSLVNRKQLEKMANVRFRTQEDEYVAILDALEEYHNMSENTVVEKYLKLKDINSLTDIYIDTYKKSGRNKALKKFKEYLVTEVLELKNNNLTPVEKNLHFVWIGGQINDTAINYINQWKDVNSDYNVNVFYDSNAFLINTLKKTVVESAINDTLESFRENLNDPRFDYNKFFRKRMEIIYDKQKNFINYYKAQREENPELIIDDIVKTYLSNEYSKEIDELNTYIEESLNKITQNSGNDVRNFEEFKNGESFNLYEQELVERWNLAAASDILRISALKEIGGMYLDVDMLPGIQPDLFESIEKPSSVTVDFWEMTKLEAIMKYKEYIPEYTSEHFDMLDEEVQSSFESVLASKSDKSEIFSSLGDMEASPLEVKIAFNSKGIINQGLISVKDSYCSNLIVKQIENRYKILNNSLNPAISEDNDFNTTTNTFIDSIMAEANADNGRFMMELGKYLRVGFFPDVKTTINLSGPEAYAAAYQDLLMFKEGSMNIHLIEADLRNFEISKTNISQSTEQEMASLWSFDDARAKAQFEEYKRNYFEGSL

Compared with `Cc1ccc(C(=O)Nc2c(C)cc(CN3C(=O)c4ccc(Cl)cc4NC(=O)[C@H]3Cc3ccccn3)cc2C)nc1` [Example 26l], `Cc1ccc(NC(=O)c2ccc(CN3C(=O)c4ccc(Cl)cc4NC(=O)[C@H]3Cc3ccccn3)cc2F)nc1` [Example 6d, (R)-4-((8-chloro-2,5-dioxo-3-(pyridin-2-ylmethyl)-2,3-dihydro-1H-benzo[e][1,4]diazepin-4(5H)-yl)methyl)-2-fluoro-N-(5-methylpyridin-2-yl)benzamide] is higher in pIC50: 6.00 to 7.00 for the first, over 7.00 for the second. The second is the more potent here.

First: O=C(Nc1ccccn1)c1ccc(CN2C(=O)c3ccc(Cl)cc3NC(=O)[C@H]2Cc2cccc(Cl)c2)cc1 [Example 4aa, (R)-4-((8-chloro-3-(3-chlorobenzyl)-2,5-dioxo-2,3-dihydro-1H-benzo[e][1,4]diazepin-4(5H)-yl)methyl)-N-(pyridin-2-yl)benzamide]
Second: COc1ccc(C[C@@H]2C(=O)Nc3cc(Cl)ccc3C(=O)N2Cc2ccc(C(=O)Nc3ccccn3)cc2)cc1 [Example 35d]
The pIC50 of the first is higher: over 7.00 for the first, 6.00 to 7.00 for the second.

First: Cc1cc(CN2C(=O)c3ccc(Cl)cc3NC(=O)[C@H]2Cc2ccccn2)cc(C)c1N [Example 24a, (R)-4-(4-Amino-3,5-dimethylbenzyl)-8-chloro-3-(pyridin-2-ylmethyl)-3,4-dihydro-1H-benzo[e][1,4]diazepine-2,5-dione]
Second: Nc1ccc(CN2C(=O)c3ccc(Cl)cc3NC(=O)[C@H]2Cc2ccccn2)cc1 [Example 23a, (R)-4-(4-Aminobenzyl)-8-chloro-3-(pyridin-2-ylmethyl)-3,4-dihydro-1H-benzo[e][1,4]diazepine-2,5-dione]
The pIC50 of the first is lower: 4.46 to 5.00 for the first, 5.00 to 6.00 for the second.

First: C[C@@H]1C(=O)Nc2cc(Cl)ccc2C(=O)N1Cc1ccc(C(=O)Nc2ccccn2)cc1 [Example 4z, (R)-4-((8-chloro-3-methyl-2,5-dioxo-2,3-dihydro-1H-benzo[e][1,4]diazepin-4(5H)-yl)methyl)-N-(pyridin-2-yl)benzamide]
Second: C[C@@H]1C(=O)Nc2cc(Cl)ccc2C(=O)N1Cc1ccc(C(=O)Nc2cc3ccccc3cn2)cc1 [Example 4bb, (R)-4-((8-chloro-3-methyl-2,5-dioxo-2,3-dihydro-1H-benzo[e][1,4]diazepin-4(5H)-yl)methyl)-N-(isoquinolin-3-yl)benzamide]
The pIC50 of the first is higher: over 7.00 for the first, 6.00 to 7.00 for the second. The first is the more potent here.

First: Cc1ccc(NC(=O)c2ccc(CN3C(=O)c4ccc(Cl)cc4NC(=O)[C@H]3CCO)cc2)nc1 [Example 9a, (R)-4-((8-Chloro-3-(2-hydroxyethyl)-2,5-dioxo-2,3-dihydro-1H-benzo[e][1,4]diazepin-4(5H)-yl)methyl)-N-(5-methylpyridin-2-yl)benzamide]
Second: Cc1ccc(NC(=O)c2ccc(CN3C(=O)c4ccc(Cl)cc4NC(=O)[C@H]3CCN3CCCCC3)cc2)nc1 [Example 10b, (R)-4-((8-chloro-2,5-dioxo-3-(2-(piperidin-1-yl)ethyl)-2,3-dihydro-1H-benzo[e][1,4]diazepin-4(5H)-yl)methyl)-N-(5-methylpyridin-2-yl)benzamide]
The pIC50 of the first is higher: 6.00 to 7.00 for the first, 4.46 to 5.00 for the second. The first is the more potent here.

`O=C(O)c1ccc(CN2C(=O)c3ccc(Cl)cc3NC(=O)[C@H]2CCc2ccccc2)cc1` [Example 3c] and `O=C(O)c1ccc(CN2C(=O)c3ccc(Cl)cc3NC(=O)[C@@H]2Cc2ccc(O)cc2)cc1` [Example 2c] fall in the same range of pIC50: 4.46 to 5.00 for the first, 4.46 to 5.00 for the second.

First: Cc1cccnc1C(=O)Nc1ccc(CN2C(=O)c3ccc(Cl)cc3NC(=O)[C@H]2Cc2ccccn2)cc1 [Example 26e]
Second: Cn1cnc(C(=O)Nc2ccc(CN3C(=O)c4ccc(Cl)cc4NC(=O)[C@H]3Cc3ccccn3)cc2)c1 [Example 27k]
The pIC50 of the first is lower: 5.00 to 6.00 for the first, over 7.00 for the second.

`COc1ccc(NC(=O)c2ccc(S(=O)(=O)N3Cc4ccc(Cl)cc4NC(=O)[C@H]3Cc3ccccn3)cc2)nc1` [Example 19f, (R)-4-((8-chloro-2-oxo-3-(pyridin-2-ylmethyl)-2,3-dihydro-1H-benzo[e][1,4]diazepin-4(5H)-yl)sulfonyl)-N-(5-methoxypyridin-2-yl)benzamide] and `Cc1ccc(NC(=O)c2ccc(S(=O)(=O)N3Cc4ccc(Cl)cc4NC(=O)[C@H]3Cc3ccccn3)cc2)nc1` [Example 19a, (R)-4-((8-Chloro-2-oxo-3-(pyridin-2-ylmethyl)-2,3-dihydro-1H-benzo[e][1,4]diazepin-4(5H)-yl)sulfonyl)-N-(5-methylpyridin-2-yl)benzamide] fall in the same range of pIC50: 6.00 to 7.00 for the first, 6.00 to 7.00 for the second.

First: Cc1ccc(NC(=O)c2ccc(CN3C(=O)c4ccc(NC(=O)c5cc(C)on5)cc4NC(=O)[C@H]3C)cc2)nc1 [Example 18c, (R)-5-methyl-N-(3-methyl-4-(4-((5-methylpyridin-2-yl)carbamoyl)benzyl)-2,5-dioxo-2,3,4,5-tetrahydro-1H-benzo[e][1,4]diazepin-8-yl)isoxazole-3-carboxamide]
Second: Cc1cccc(NC(=O)c2ccc(CN3C(=O)c4ccc(Cl)cc4NC(=O)[C@H]3Cc3cccnc3)cc2)n1 [Example 4o, (R)-4-((8-chloro-2,5-dioxo-3-(pyridin-3-ylmethyl)-2,3-dihydro-1H-benzo[e][1,4]diazepin-4(5H)-yl)methyl)-N-(6-methylpyridin-2-yl)benzamide]
The pIC50 of the first is higher: 5.00 to 6.00 for the first, 4.46 to 5.00 for the second. The first is the more potent here.

`O=C(O)c1ccc(CN2C(=O)c3ccc(Cl)cc3NC(=O)[C@H]2Cc2ccccn2)cc1-c1ccc(F)cc1` [Example 8d, (R)-5-((8-chloro-2,5-dioxo-3-(pyridin-2-ylmethyl)-2,3-dihydro-1H-benzo[e][1,4]diazepin-4(5H)-yl)methyl)-4′-fluoro-[1,1′-biphenyl]-2-carboxylic acid] and `CC(=O)Nc1ccc(-c2cc(CN3C(=O)c4ccc(Cl)cc4NC(=O)[C@H]3Cc3ccccn3)ccc2C(=O)O)cc1` [Example 8n, (R)-4′-acetamido-5-((8-chloro-2,5-dioxo-3-(pyridin-2-ylmethyl)-2,3-dihydro-1H-benzo[e][1,4]diazepin-4(5H)-yl)methyl)-[1,1′-biphenyl]-2-carboxylic acid] fall in the same range of pIC50: 6.00 to 7.00 for the first, 6.00 to 7.00 for the second.

`Cc1cc(CN2C(=O)c3ccc(Cl)cc3NC(=O)[C@H]2Cc2ccccn2)ccc1C(=O)Nc1ccc(F)cn1` [Example 5ap, (R)-4-((8-chloro-2,5-dioxo-3-(pyridin-2-ylmethyl)-2,3-dihydro-1H-benzo[e][1,4]diazepin-4(5H)-yl)methyl)-N-(5-fluoropyridin-2-yl)-2-methylbenzamide] and `O=C(Nc1ncccc1F)c1ccc(CN2C(=O)c3ccc(Cl)cc3NC(=O)[C@H]2Cc2ccccn2)cc1Cl` [Example 5ac, (R)-2-chloro-4-((8-chloro-2,5-dioxo-3-(pyridin-2-ylmethyl)-2,3-dihydro-1H-benzo[e][1,4]diazepin-4(5H)-yl)methyl)-N-(3-fluoropyridin-2-yl)benzamide] cannot be ordered by pIC50: over 7.00 for the first, over 7.00 for the second.

Compared with `O=C1Nc2cc(Cl)ccc2C(=O)N(Cc2ccc(C(=O)N3CCc4cccnc43)cc2)[C@@H]1Cc1ccccn1` [Example 4ah, (R)-8-chloro-4-(4-(2,3-dihydro-1H-pyrrolo[2,3-b]pyridine-1-carbonyl)benzyl)-3-(pyridin-2-ylmethyl)-3,4-dihydro-1H-benzo[e][1,4]diazepine-2,5-dione], `Cc1cc(C(=O)c2ccc(CN3C(=O)c4ccc(Cl)cc4NC(=O)[C@H]3Cc3ccccn3)cc2)c2nccn2c1` [Example 31e] is lower in pIC50: over 7.00 for the first, 5.00 to 6.00 for the second. The first is the more potent here.

First: CC1C(=O)Nc2cc(Cl)ccc2C(=O)N1C1(c2ccc(C(=O)c3cccn4ccnc34)cc2)CC1 (stereo not drawn) [Example 50a, 8-Chloro-4-(1-(4-(imidazo[1,2-α]pyridine-8-carbonyl)phenyl)cyclopropyl)-3-methyl-3,4-dihydro-1H-benzo[e][1,4]diazepine-2,5-dione]
Second: CN1CCN(c2ccc(NC(=O)c3ccc(CN4C(=O)c5ccc(Cl)cc5NC(=O)[C@H]4Cc4ccccn4)cc3)nc2)CC1 [Example 4ax, (R)-4-((8-chloro-2,5-dioxo-3-(pyridin-2-ylmethyl)-2,3-dihydro-1H-benzo[e][1,4]diazepin-4(5H)-yl)methyl)-N-(5-(4-methylpiperazin-1-yl)pyridin-2-yl)benzamide]
The pIC50 of the first is lower: 6.00 to 7.00 for the first, over 7.00 for the second.

`CC(=O)Nc1cc(CN2C(=O)c3ccc(Cl)cc3NC(=O)[C@H]2Cc2ccccn2)ccc1C(=O)O` [Example 22a, (R)-2-Acetamido-4-((8-chloro-2,5-dioxo-3-(pyridin-2-ylmethyl)-2,3-dihydro-1H-benzo[e][1,4]diazepin-4(5H)-yl)methyl)benzoic Acid] and `COCC(=O)Nc1cc(CN2C(=O)c3ccc(Cl)cc3NC(=O)[C@H]2Cc2ccccn2)ccc1C(=O)O` [Example 22b] fall in the same range of pIC50: 6.00 to 7.00 for the first, 6.00 to 7.00 for the second.

First: O=C(Nc1ncccn1)c1ccc(CN2C(=O)c3ccc(Cl)cc3NC(=O)[C@H]2Cc2cccnc2)cc1 [Example 5b, (R)-4-((8-chloro-2,5-dioxo-3-(pyridin-3-ylmethyl)-2,3-dihydro-1H-benzo[e][1,4]diazepin-4(5H)-yl)methyl)-N-(pyrimidin-2-yl)benzamide]
Second: O=C(Nc1ccccn1)c1ccc(CN2C(=O)c3ccc(C(F)(F)F)cc3NC(=O)[C@H]2Cc2ccc(Cl)c(Cl)c2)cc1 [Example 35f]
The pIC50 of the first is higher: over 7.00 for the first, 5.00 to 6.00 for the second.

Compared with `COc1cc(CN2C(=O)c3ccc(Cl)cc3NC(=O)[C@H]2Cc2ccccn2)ccc1C(=O)c1ccccn1` [Example 11j, (R)-8-chloro-4-(3-methoxy-4-picolinoylbenzyl)-3-(pyridin-2-ylmethyl)-3,4-dihydro-1H-benzo[e][1,4]diazepine-2,5-dione], `Cc1cccc(-c2cc(CN3C(=O)c4ccc(Cl)cc4NC(=O)[C@H]3Cc3ccccn3)ccc2C(=O)O)c1` [Example 8h, (R)-5-((8-chloro-2,5-dioxo-3-(pyridin-2-ylmethyl)-2,3-dihydro-1H-benzo[e][1,4]diazepin-4(5H)-yl)methyl)-3′-methyl-[1,1′-biphenyl]-2-carboxylic acid] is lower in pIC50: over 7.00 for the first, 6.00 to 7.00 for the second. The first is the more potent here.

Compared with `O=C1Nc2cc(Cl)ccc2C(=O)N(C[C@H]2CC[C@H](C(=O)O)CC2)[C@@H]1Cc1ccccn1` [Example 1j], `Cn1cnc(C(=O)[C@H]2CC[C@H](CN3C(=O)c4ccc(Cl)cc4NC(=O)[C@H]3Cc3ccccn3)CC2)c1` [Example 33d] is higher in pIC50: 4.46 to 5.00 for the first, 6.00 to 7.00 for the second.

`CN1CCC(C(=O)Nc2cc(CN3C(=O)c4ccc(Cl)cc4NC(=O)[C@H]3Cc3ccccn3)ccc2C(=O)O)CC1` [Example 22i] and `O=C(Nc1ccccn1)c1cccc(S(=O)(=O)N2Cc3ccc(Cl)cc3NC(=O)[C@H]2Cc2ccccn2)c1` [Example 19j, (R)-3-((8-chloro-2-oxo-3-(pyridin-2-ylmethyl)-2,3-dihydro-1H-benzo[e][1,4]diazepin-4(5H)-yl)sulfonyl)-N-(pyridin-2-yl)benzamide] fall in the same range of pIC50: 4.46 to 5.00 for the first, 4.46 to 5.00 for the second.
